In PubChem BioAssay (NCI):
Several values for one entry are separate records, joined by “and”; a condition that tells them apart may be missing. Identical values can stand only once.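 1) Cells in 96-well plates. 2) Compound, 48 h, 5 concentrations. 3) Linear interpolation between surrounding doses. 4) Unreached endpoint = highest concentration. Abbreviation: GI50, concentration required for 50% inhibition of growth. Definition used: TGI = concentration required for complete inhibition of growth.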

Assays:
Test in all cases: NCI anticancer screen, dose series, 48 h
[1] = system: DU-145 prostate
[2] = system: HCT-15 colon
[3] = system: HOP-62 NSCLC
[4] = system: IGROV1 ovarian
[5] = system: K-562 leukemia
[6] = system: MDA-MB-435
[7] = system: MDA-N
[8] = system: NCI-H23 lung
[9] = system: NCI/ADR-RES ovarian
[10] = system: PC-3 prostate
[11] = system: SF-539 CNS
[12] = system: SR leukemia
[13] = system: T-47D breast
[14] = system: MDA-MB-231 breast
[15] = system: DLD-1 colon
[16] = system: DMS 114 small cell lung
[17] = system: M19-MEL melanoma

Row | SMILES | TGI [1] | TGI [2] | TGI [3] | TGI [4] | TGI [5] | TGI [6] | TGI [7] | TGI [8] | TGI [9] | TGI [10] | TGI [11] | TGI [12] | TGI [13] | TGI [14] | TGI [15] | TGI [16] | GI50 [2] | GI50 [5] | GI50 [8] | TGI [17]
1 | N#Cc1c(-c2cccc(Br)c2)cc(-c2ccc(Cl)cc2)nc1N | > 100 µM | 30 µM | 79.1 µM | 34.3 µM | 81.9 µM | 38.2 µM | 46.7 µM | 71.7 µM | 55.6 µM | 71.3 µM | 39.5 µM | 46.3 µM | > 100 µM | – | – | – | – | – | – | –
2 | COc1cccc(N2C(=O)CSC2c2c[nH]c3ccccc23)c1 (stereo unspecified) | > 100 µM | > 100 µM | > 100 µM | > 100 µM | > 100 µM | > 100 µM | > 100 µM | > 100 µM | – | > 100 µM | – | > 100 µM | > 100 µM | > 100 µM | – | – | – | – | – | –
3 | COC(=O)C1C(O)C(C)C(O)C(C)/C=C\C=C(C)C(=O)Nc2c(C)c(OC(C)=O)c3c(c2O)C(=O)C(C)=C2OCOC(=C23)C(C)=CC(C)(O)C(O)C(C)C1O (stereo unspecified) | > 100 µM | 50.8 µM and > 100 µM | > 100 µM | > 100 µM | > 100 µM | > 100 µM | > 100 µM | 58.9 µM and > 100 µM | > 100 µM | > 100 µM | 74.3 µM and > 100 µM | > 100 µM | > 100 µM | > 100 µM | 31.4 µM | 52.6 µM | 19.4 µM and > 100 µM | 28.3 µM and > 100 µM | 32.6 µM and > 100 µM | –
4 | O=S(=O)(O)c1ccc(N=Nc2c(O)ccc3ccccc23)cc1 | > 100 µM | > 100 µM | > 100 µM | > 100 µM | > 100 µM | > 100 µM | > 100 µM | > 100 µM | > 100 µM | > 100 µM | > 100 µM | > 100 µM | > 100 µM | > 100 µM | – | – | – | – | – | –
5 | O=c1cnn(C/C=C/CP(=O)(O)O)c(=O)[nH]1 | > 100 µM | > 100 µM | > 100 µM | > 100 µM | > 100 µM | > 100 µM | > 100 µM | > 100 µM | > 100 µM | > 100 µM | > 100 µM | > 100 µM | > 100 µM | > 100 µM | – | – | – | – | – | –
6 | CC[N+](C)(C)c1ccc(C(=C2C=CC(=[N+](C)C)C=C2)c2ccc(N(C)C)cc2)cc1 | – | 89.4 µM | 41.2 µM | 40.8 µM | 15.2 µM | – | – | 55 µM | – | – | 50.4 µM | 35.6 µM | – | – | 62.4 µM | 26.7 µM | – | – | – | 25 µM
7 | COc1cc2c(cc1C)NC(=O)/C2=C\c1cccnc1 | 54.3 µM | > 100 µM | 51.9 µM | – | > 100 µM | 50.1 µM | – | 23.3 µM | 36.8 µM | > 100 µM | 51.7 µM | – | 11.7 µM | – | – | – | – | – | – | –
8 | O=S(=O)(O)c1cc(S(=O)(=O)O)c2c(N=Nc3ccccc3)c(O)ccc2c1 | > 100 µM | > 100 µM | > 100 µM | > 100 µM | > 100 µM | > 100 µM | > 100 µM | > 100 µM | > 100 µM | > 100 µM | – | – | > 100 µM | > 100 µM | – | – | – | – | – | –
9 | CC(C)OP(=O)(OC(C)C)c1nn(-c2ccc([N+](=O)[O-])cc2)c(=N)s1 | – | > 100 µM | > 100 µM | > 100 µM | > 100 µM | – | – | > 100 µM | – | – | > 100 µM | – | – | – | > 100 µM | > 100 µM | – | – | – | > 100 µM
10 | COc1cccc2c1C(=O)c1c(O)c3c(c(O)c1C2=O)CC(O)(C(C)=O)CC3OC1CC([N+](C)(C)C)C(O)C(C)O1 (stereo unspecified) | – | > 100 µM | > 100 µM | > 100 µM | > 100 µM | – | – | > 100 µM | – | – | > 100 µM | > 100 µM | – | – | > 100 µM | > 100 µM | – | – | – | > 100 µM
11 | CC1=CC(=C(c2ccc(N)c(C)c2)c2ccc(N)c(C)c2)C=CC1=N | – | > 61.4 µM | 10.4 µM | 71.8 µM | 22.5 µM | – | – | 12.5 µM | – | – | 14.5 µM | 18.3 µM | – | – | > 100 µM | 9.96 µM | – | – | – | 14.7 µM
12 | OC12c3ccccc3C1CCCCCCCCCC21OCCCO1 (stereo unspecified) | – | > 100 µM | > 100 µM | > 100 µM | > 100 µM | – | – | > 100 µM | – | – | > 100 µM | > 100 µM | – | – | > 100 µM | > 100 µM | – | – | – | > 100 µM
13 | O=S(=O)(O)c1cccc2ccc(O)c(N=Nc3ccc(S(=O)(=O)c4ccc(N=Nc5c(O)ccc6cccc(S(=O)(=O)O)c56)cc4)cc3)c12 | > 100 µM | > 100 µM | > 100 µM | > 100 µM | > 100 µM | > 100 µM | > 100 µM | > 100 µM | > 100 µM | > 100 µM | – | – | > 100 µM | > 100 µM | – | – | – | – | – | –
14 | COC1C(=[N+]=[N-])C(=O)NC(=O)N1C1OC(COC(c2ccccc2)(c2ccccc2)c2ccccc2)C(O)C1O (stereo unspecified) | – | 36.8 µM | 41.1 µM | 47.5 µM | 49.4 µM | – | – | 34.8 µM | – | – | 35.6 µM | – | – | – | 37.3 µM | – | – | – | – | 39.5 µM
15 | CCC(C)C1=C(O)[N+]2([O-])Oc3ccc(-c4c(O)c(O)c(-c5ccc(O)cc5)c(OC(C)=O)c4OC(C)=O)cc3OC2(C(C)CC)C(=O)N1O (stereo unspecified) | > 50 µM | > 50 µM | – | > 50 µM | > 50 µM | > 50 µM | > 50 µM | > 50 µM | > 50 µM | > 50 µM | > 50 µM | > 50 µM | > 50 µM | > 50 µM | – | – | – | – | – | –
